Experimental data reported in patent publication EP4656654A1, “SOMATOSTATIN PEPTIDE ANALOGUE, CHELATE AND USE THEREOF” (Qianhangjiang Pharmaceutical Co., Ltd., priority 2023, dated 2025).
Read-outs that look alike come from different tables or passages of the source. Numbered stars: 1 amine (or outer) side, 2 acyl side, 3 side chain; on linkers, the order of the positions; unused ones are H or OH. Bridge positions count the residues as written; N and C are the ends. Square brackets hold non-standard residues; d marks the D form. Peptide text beside a SMILES is read from it. * marks the point of attachment. Phe(3-CH2NH2) = O=C([C@H](Cc1cccc(CN[*:3])c1)N[*:1])[*:2]; DOTA = O=C(O)CN1CCN(CC(=O)O)CCN(CC(=O)*)CCN(CC(=O)O)CC1; X2 = CC(C)(CN)CC[C@H](N[*:1])C(=O)[*:2]; X1 = CC(CN)CC[C@H](N[*:1])C(=O)[*:2]; Thr(ol) = C[C@@H](O)[C@H](N)CO

Target: T1, SSTR2 (Homo sapiens, UniProt P30874)
T1 construct: host or cells: CHO-K1
T1 sequence (P30874 whole entry): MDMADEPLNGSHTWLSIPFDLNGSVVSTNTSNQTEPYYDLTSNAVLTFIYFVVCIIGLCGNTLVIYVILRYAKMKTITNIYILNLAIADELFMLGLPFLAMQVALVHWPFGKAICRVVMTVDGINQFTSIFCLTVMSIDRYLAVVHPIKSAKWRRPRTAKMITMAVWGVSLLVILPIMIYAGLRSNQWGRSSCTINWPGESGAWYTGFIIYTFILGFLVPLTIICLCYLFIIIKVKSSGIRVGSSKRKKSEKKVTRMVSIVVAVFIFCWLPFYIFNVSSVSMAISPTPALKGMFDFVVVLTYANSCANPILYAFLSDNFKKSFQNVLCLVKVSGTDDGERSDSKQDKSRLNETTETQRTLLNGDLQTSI
Experiment: competitive radioligand binding assay (125I-Tyr11-Somatostatin-14) on membranes of SSTR2-overexpressing CHO-K1 cells
Conditions: for EC50: radioligand 125I-Tyr11-Somatostatin-14, SSTR2 CHO-K1 cell membrane; for Bottom: parameter A, bottom of fitted % Effect curve; for Top: parameter B, top of fitted % Effect curve; for Hill slope: parameter D of fitted curve
Procedure: A competitive radioligand binding assay is utilized to measure the binding affinity of the somatostatin analogs of Formula II of the present invention. SSTR2-overexpressing CHO-K1 cells (Hunter Express SSTR2 CHO-K1; DiscoverX) are used in the radioligand competitive binding assay, with ^125I-Tyr^11-Somatostatin-14 (PerkinElmer) as the radioligand. The assay is performed as follows:
SSTR2-overexpressing CHO-K1 cells (from Discover X) were cultured in complete medium (F12 basal medium with 10% FBS and 1% P/S [100 U/mL penicillin and 100 µg/mL streptomycin]) in a 37°C incubator with 5% CO2. When the cell confluency reached 80-90%, the cells were washed twice with pre-cooled PBS. The cells were then scraped off with a cell scraper and transferred to a 50 mL centrifuge tube, followed by centrifugation at 500×g and 4°C for 10 minutes. The supernatant was discarded, and the cell pellet was retained. Cell membrane lysis buffer (containing 25 mM HEPES, 1 mM EDTA, 2 mM MgCl2, and 1× protease inhibitor, pH = 7.4) was added at a ratio of 4 × 10^7 cells/10 mL and placed on ice for 10 minutes. The cells were then disrupted using an IKA disruptor. The operating procedure was 15,000 rpm for 10 seconds, repeated twice. The disrupted cell suspension was centrifuged at 4°C and 650×g for 5 minutes. The supernatant was transferred to a new centrifuge tube and centrifuged at 13,000 rpm and 4°C for 30 minutes. The supernatant was discarded, and the cell membrane pellet was resuspended in 1.6 mL of resuspension buffer, which was cell membrane lysis buffer supplemented with 10% sucrose. The cell membrane lysis buffer was repeatedly aspirated 4 times with a 27-gauge needle to break the DNA. The cell membrane extract was measured for protein concentration using the BCA method and aliquoted and stored at -80°C.
• (1) Dilution of Compound: The assay buffer used contains 50 mM Hepes, 5 mM MgCl2, 1 mM CaCl2, and 0.5% BSA, pH = 7.4, and the buffer is filtered. The assay buffer is kept at 4°C. The ligand solution is serially diluted using an Agilent Bravo. Each test compound is diluted […] in succession. The eight binding concentrations of typical compounds are: 50 nM, 12.5 nM, 3.13 nM, 0.78 nM, 0.20 nM, 0.05 nM, 12.2 pM, and 3.05 pM. The affinity of each concentration is measured twice. Transfer 1 µL of each diluted compound to the corresponding wells of a 96-well V-bottom plate. • (2) Preparation of 125I-SST: The stock solution of 125I-SST was diluted to 3 nM (10×) with binding buffer (containing 50 mM Hepes, 5 mM MgCl2, 1 mM CaCl2, and 0.5% BSA, pH = 7.4, stored at 4°C). Transfer 10 µL of the solution to the corresponding compound well. • (3) Binding Experiment: The extracted cell membrane was diluted to 2.5 µg/90 µL with binding buffer and added to the corresponding wells. The mixture was incubated at 500 rpm on a 25°C shaker for 2 hours. The membrane complex was collected into a 0.5% PEI pre-coated GF/B plate using a Cell Harvester, and rinsed 3 times per well with 200 µL of pre-cooled buffer (4°C) (the same buffer used to dilute the compound). The plate was dried at 37°C for 2 hours. After adding 50 µL of liquid scintillation fluid (MicroScint20, Perkin Elmer) to each well and incubating for 30 minutes, the radioactivity was measured using a Topcount plate reader for 30 seconds per well.
For each compound, its 8-point reading data (2× of 8 readings) were imported into XLfit software and fitted to the sigmoidal curve. The EC50 of the compound for SSTR2 was calculated based on the mathematically optimal sigmoidal dose-response model equation: y−A + ((B−A))/(1 + (((C)/(x)))^D) [formula] where A represents the bottom of the curve, B represents the top of the curve, C represents the relative EC50, D represents the Hill slope, y represents the percentage effect value (% Effect) of the curve fitting, and x represents the molar concentration.

[1] = concentration x calculated from the fit at y = 50% effect, read-out: Absolute EC50
[2] = parameter C of sigmoidal fit, 8 concentrations in duplicate, read-out: Relative EC50

Compound | EC50 [1] [pM] | Bottom [%] | Top [%] | EC50 [2] [pM] | Hill slope
C[C@@H](O)[C@@H]1NC(=O)[C@H](CCC(C)(C)CN)NC(=O)[C@@H](Cc2c[nH]c3ccccc23)NC(=O)[C@H](Cc2ccccc2)NC(=O)[C@@H](NC(=O)[C@H](N)Cc2ccccc2)CSSC[C@@H](C(=O)N[C@H](CO)[C@@H](C)O)NC1=O [Compound 2] (H-[dF]CF[dW][X2]TC[Thr(ol)]; disulfide 2-7) | 1000 |  |  | 1200 | 
C[C@@H](O)[C@@H]1NC(=O)[C@H](CCCCCN)NC(=O)[C@@H](Cc2c[nH]c3ccccc23)NC(=O)[C@H](Cc2ccccc2)NC(=O)[C@@H](NC(=O)[C@H](N)Cc2ccccc2)CSSC[C@@H](C(=O)N[C@H](CO)[C@@H](C)O)NC1=O [Compound 1] | 740 |  |  | 1300 | 
C[C@@H](O)[C@H](NC(=O)[C@@H]1CSSC[C@H](NC(=O)[C@@H](Cc2ccccc2)NC(=O)CN2CCN(CC(=O)O)CCN(CC(=O)O)CCN(CC(=O)O)CC2)C(=O)N[C@@H](Cc2ccc(O)cc2)C(=O)N[C@H](Cc2c[nH]c3ccccc23)C(=O)N[C@@H](CCC(C)(C)CN)C(=O)N[C@@H]([C@@H](C)O)C(=O)N1)C(=O)O [Compound 6] ({DOTA}-[dF]CY[dW][X2]TCT-OH; disulfide 2-7; N-terminus and C-terminus assumed) |  | 13.2 | 98.3 |  | 0.88
C[C@@H](O)[C@@H]1NC(=O)[C@H](Cc2cccc(CN)c2)NC(=O)[C@@H](Cc2c[nH]c3ccccc23)NC(=O)[C@H](Cc2ccccc2)NC(=O)[C@@H](NC(=O)[C@H](N)Cc2ccccc2)CSSC[C@@H](C(=O)N[C@H](CO)[C@@H](C)O)NC1=O [Compound 5] (H-[dF]CF[dW][Phe(3-CH2NH2)]TC[Thr(ol)]; disulfide 2-7) |  | 8.7 | 100.0 |  | 0.84

Next, values leading:

EC50 [1] [pM] | Bottom [%] | Top [%] | EC50 [2] [pM] | Hill slope | Compound
71 | 11.7 | 99.9 | 91 | 1.07 | C[C@@H](O)[C@@H]1NC(=O)[C@H](C2CCCC(CN)C2)NC(=O)[C@@H](Cc2c[nH]c3ccccc23)NC(=O)[C@H](Cc2ccccc2)NC(=O)[C@@H](NC(=O)[C@H](N)Cc2ccccc2)CSSC[C@@H](C(=O)N[C@H](CO)[C@@H](C)O)NC1=O (single isomer, unassigned) [Compound 4]
250 |  |  | 290 |  | CC(CN)CC[C@@H]1NC(=O)[C@@H](Cc2c[nH]c3ccccc23)NC(=O)[C@H](Cc2ccccc2)NC(=O)[C@@H](NC(=O)[C@H](N)Cc2ccccc2)CSSC[C@@H](C(=O)N[C@H](CO)[C@@H](C)O)NC(=O)[C@H]([C@@H](C)O)NC1=O (some centres unmarked) [Compound 3] (H-[dF]CF[dW][X1]TC[Thr(ol)]; disulfide 2-7)
 | 10.8 | 99.5 |  | 1.08 | C[C@@H](O)[C@@H]1NC(=O)[C@H](C2CCCC(CN)C2)NC(=O)[C@@H](Cc2c[nH]c3ccccc23)NC(=O)[C@H](Cc2ccccc2)NC(=O)[C@@H](NC(=O)[C@H](N)Cc2ccccc2)CSSC[C@@H](C(=O)N[C@H](CO)[C@@H](C)O)NC1=O (single isomer, unassigned) [Compound 7p2]
